# Results: US11427575B2, “Antitumor compound for activating JWA gene and degrading HER2, preparation method thereof, and application thereof” (SIMCERE PHARMACEUTICAL CO., LTD., priority 2019, dated 2022)
# Like-named read-outs stand apart in the source and are kept apart here.
# Columns and labels:
# JWA protein [1] = conditions: 10 μM, 48 h
# Description: A HER2-positive BGC823 human gastric cancer cell line was established in which JWA gene was deleted using Crisp/cas9 technology. […] After protein extraction, western blotting technology was used to determine the expression levels of JWA and HER2 proteins in the wild-type cell line (JWA WT) and the JWA-knockout cell line (JWA KO).
# HER2 protein = experiment: Laser confocal immunofluorescence in HER2-positive breast cancer cells, HER2 level and localization; type: cell-based, human; conditions: immunofluorescence, 0, 1, 10 μM, 24 h
# Description: The cells were inoculated into a 35 mm glass bottom dish, treated with different concentrations (0, 1, and 10 μM) of JAC1 for 24 h, fixed with methanol for 15 min, washed three times with PBST, blocked with normal sheep serum for 1 h, and incubated in primary antibody overnight at 4° C. The cells were then washed three times with PBST, incubated in fluorescent secondary antibody and 4′,6-diamidino-2-phenylindole (DAPI), and photographed using a laser confocal scanning microscopy.
# [2] = test system: BT474 human breast cancer cells; experiment: Tumor growth in nude mice subcutaneously transplanted with BT474 cells; type: in vivo, BALB/c nude mice; conditions: for tumor growth (tumor volume): vs blank control; for tumor weight / tumor weight/mouse body weight ratio: P<0.05
# Description: BT474 human breast cancer cells in the logarithmic growth phase were suspended in ice-cold suspension buffer for a final concentration of 5×10^6/100 μL, followed by subcutaneous transplantations of the suspended cells into BALB/c nude mice. When the tumor grown up to 75-125 mm^3, the BALB/c nude mice were randomly divided into five equal groups, including a blank control group (Mock), a solvent control group (Vehicle), a 50 mg/kg JAC1 treatment group, a 100 mg/kg JAC1 treatment group, and a positive control group treated with Pacilitaxel and Trastuzumab (TH). Dose and administration: JAC1 was injected intraperitoneally into mice once daily; the dosage of Trastuzumab was 10 mg/kg injected intraperitoneally twice a week; the dosage of Pacilitaxel was 20 mg/kg injected intraperitoneally once a week. From the day of administration, mouse body weights and tumor diameters were measured every other 2 days, and the tumor volume was calculated using an equation. When the mice reached a humane endpoint at which the tumor volume increased to 2500-3000 mm^3, the research based on the mouse models was terminated and the laboratory mice were anesthetized and euthanized in a timely manner to alleviate animal suffering and perform the statistical analysis.
# [3] = Serum biochemical indexes in tumor-bearing nude mice; conditions: particularly 100 mg/kg, vs blank control
# Description: A model of nude mice subcutaneously transplanted with human breast cancer cells was built with reference to the method of Example 16. The laboratory mice that have been modeled were anesthetized to determine whether damage occurred to the major organs in the mouse body. Whole blood was collected from the anesthetized mice, and the serum was separated and used to detect a change in the serum biochemical indexes using an automatic biochemistry analyzer.
# SKBR3 cells = conditions: SKBR3, 1 and 10 μM, 10-15 d, vs control
# Description: Two human breast cancer cell lines BT474 and SKBR3 were incubated in DMEM medium containing, respectively, 20% and 10% fetal bovine serum (FBS), conventional double-antibody, and were placed in a 37° C. incubator with 5% CO2. The BT474 and SKBR3 cells in the logarithmic growth phase were transferred into 6-well plates for 800 cells per well. After the cells adhered to the walls of the plates, the cells were cultured in the medium containing different concentrations (0, 1, and 10 μM) of JAC1, respectively. By observing the formation of each cell colony, the cells were continued to be cultured for 10-15 d, followed by removal of medium. After fixation with methanol and photographing, the number of the cell colonies (each containing more than 50 cells) was counted using the software ImageJ, and the computer program SPSS is used for statistical analysis.
# JWA protein [4] = experiment: Western blot in HER2-positive breast cancer cells, JWA; type: cell-based, human; conditions: increasing concentration, 24 h
# Description: The cells in the logarithmic growth phase were routinely digested, and transferred into 6-well plates at the cell density of 40%-50%. The cells were incubated with different concentrations of JAC1 for 24 h, followed by an addition of 0.1 mL of Radioimmunoprecipitation Assay Butter (RIPA, containing 0.5% phenylmethylsulfonyl fluoride (PMSF)) for protein extraction. After centrifugation at 12,000×g for 15 min, the supernatant was collected, and brought to a determination of protein concentration and a boil. Protein electrophoresis was performed with 10% polyacrylamide gel. The protein was transferred into the gel wells for 40 μg protein per well, migrated at 60 V for 30 min, and 90 V for 1.5-2 h. After gel electrophoresis, the protein was transferred by wet method from gel to a PVDF membrane, and blocked with 5% skim milk at room temperature for 1-2 h. The membrane was washed with Tris-Buffered Saline and Tween 20 (TBST, containing 0.1% Tween 20) three times for 5 min each, and incubated in the corresponding primary antibody overnight at 4° C. The membrane was then washed with the TBST (containing 0.1% Tween 20) three times for 5 min each, incubated in the secondary antibody at room temperature for 1-2 h, and washed with the TBST (containing 0.1% Tween 20) eight times for 5 min each. […]
# promoter of JWA gene = experiment: Luciferase reporter gene under control of JWA gene promoter in HBE cells (high-throughput screening); type: cell-based, human; conditions: for fluorescence intensity of reporter gene: 48 h
# Description: High-throughput screening (HTS) was used to identify the human bronchial epithelial (HBE) cells stably transfected with a DNA construct with a luciferase gene under control of a 2,000 bp long promoter of JWA gene.
# FIG. 1 is a sequence containing the 2000 bp promoter sequence of JWA gene that was used for a luciferase reporter gene plasmid construction.
smiles,measurement,setting,value
"COc1cccc2sc(Nc3nc4c(F)cccc4s3)nc12 [JAC1, 4-fluoro-N-(4-methoxybenzene (d)thiazole-2-group) benzene (d) thiazole-2-amine]",JWA expression level,JWA protein [1]; BGC823 JWA KO,no effect
same,JWA protein level,JWA protein [1]; BGC823 JWA WT,significantly increase JWA protein level
same,HER2 protein level,HER2 protein,HER2 protein level reduced
same,cellular localization of HER2 protein,HER2 protein,no effect on the localization of HER2 protein in the cell membrane
same,tumor growth (tumor volume),[2]; 50 mg/kg intraperitoneally once daily,obvious results at suppressing tumor growth
same,Tumor growth inhibition rate,[2]; 50 mg/kg ip once daily,31.22%
same,tumor weight,[2]; 50 mg/kg ip once daily,reduced
same,tumor weight/mouse body weight ratio,[2]; 50 mg/kg ip once daily,decreased
same,tumor growth (tumor volume),[2]; 100 mg/kg intraperitoneally once daily,obvious results at suppressing tumor growth
same,Tumor growth inhibition rate,[2]; 100 mg/kg ip once daily,46.21%
same,tumor weight,[2]; 100 mg/kg ip once daily,reduced
same,tumor weight/mouse body weight ratio,[2]; 100 mg/kg ip once daily,decreased
same,alanine transaminase (ALT),[3],significant decreases
same,aspartate transaminase (AST),[3],significant decreases
same,creatine kinase (CK),[3],significant decreases
same,creatine kinase isoenzyme (CKMB),[3],significant decreases
same,superoxide dismutase (SOD),[3],significantly increased
same,triglyceride (TG),[3],significant decreases
same,colony-forming ability,SKBR3 cells,significantly reduce the colony-forming ability
same,JWA protein level,JWA protein [4],JWA protein level increased
same,fluorescence intensity of reporter gene,promoter of JWA gene; 0.05 μg/mL,13560.00
same,fluorescence intensity of reporter gene,promoter of JWA gene; 0.10 μg/mL,16200.00
same,fluorescence intensity of reporter gene,promoter of JWA gene; 0.21 μg/mL,21975.00
same,fluorescence intensity of reporter gene,promoter of JWA gene; 0.41 μg/mL,28186.67
same,fluorescence intensity of reporter gene,promoter of JWA gene; 0.83 μg/mL,38760.00
same,fluorescence intensity of reporter gene,promoter of JWA gene; 1.65 μg/mL,54293.33
same,fluorescence intensity of reporter gene,promoter of JWA gene; 3.30 μg/mL,68080.00
same,activation of JWA gene,promoter of JWA gene; result in words,particularly significant effect on activation of JWA gene
